ChEMBL document CHEMBL1152289, “Antithyroid drug carbimazole and its analogues: synthesis and inhibition of peroxidase-catalyzed iodination of L-tyrosine” (J Med Chem, 2008)

What follows are compounds tested against Lactoperoxidase (Homo sapiens, UniProt P22079) (assay: Inhibition of lactoperoxidase-catalyzed iodination of L-tyrosine assessed as 3,5-diiodo-L-tyrosine formation by HPLC).
Chain of Lactoperoxidase (P22079 whole entry): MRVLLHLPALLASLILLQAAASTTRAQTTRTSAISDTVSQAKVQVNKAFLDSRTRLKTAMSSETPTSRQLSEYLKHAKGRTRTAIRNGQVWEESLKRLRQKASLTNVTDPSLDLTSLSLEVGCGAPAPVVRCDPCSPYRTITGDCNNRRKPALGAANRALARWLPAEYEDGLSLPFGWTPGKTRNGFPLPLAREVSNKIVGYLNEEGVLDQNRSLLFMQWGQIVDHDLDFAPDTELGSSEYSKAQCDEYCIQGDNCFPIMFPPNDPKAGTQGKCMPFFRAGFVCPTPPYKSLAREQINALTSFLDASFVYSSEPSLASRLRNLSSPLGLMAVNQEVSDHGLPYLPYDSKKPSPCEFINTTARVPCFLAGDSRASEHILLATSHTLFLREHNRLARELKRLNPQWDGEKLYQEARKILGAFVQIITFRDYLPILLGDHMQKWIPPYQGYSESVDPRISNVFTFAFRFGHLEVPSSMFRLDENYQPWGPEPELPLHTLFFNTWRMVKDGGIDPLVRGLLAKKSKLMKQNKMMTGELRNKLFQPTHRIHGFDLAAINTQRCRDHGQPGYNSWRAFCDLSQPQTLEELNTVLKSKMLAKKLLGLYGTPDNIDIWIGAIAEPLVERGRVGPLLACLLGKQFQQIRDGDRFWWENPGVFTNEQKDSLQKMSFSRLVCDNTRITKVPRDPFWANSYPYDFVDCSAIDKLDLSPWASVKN

SMILES	IC50 [µM]
CCOC(=O)n1ccn(CC)c1=[Se]	21.3
CCOC(=O)n1ccn(C)c1=[Se]	10.1
CCn1ccn(C(=O)OC)c1=[Se]	25.3
CCOC(=O)n1ccn(CC)c1=S	20.5
COC(=O)n1ccn(C)c1=[Se]	19.7

Further lines, results first:

IC50 [µM]	SMILES
10.7	COC(=O)n1ccn(C)c1=S
19.6	CCn1ccn(C(=O)OC)c1=S
10.4	CCOC(=O)n1ccn(C)c1=S [CARBIMAZOLE]
11.8	Cn1cc[nH]c1=S [METHIMAZOLE]
